Columns and labels:
[1] = test system: human keratinocytes; assay type: cell-based; details: 0.3 µM with 500 µM carvacrol, 24 h
Procedure: Figure 5 Alpha-mangostin (α-MG) inhibited carvacrol-induced cytokine release in NHEK cells and rescued carvacrol-induced cell death. (A) Alpha-mangostin inhibited the carvacrol-induced release of IL-8 and IL-6 in NHEK. Cells were induced by 300 µM carvacrol with or without either 1 µM alpha-mangostin or 10 µM 74a for 24 h before the ELISA assay. (B) Alpha-mangostin reduced cell death caused by carvacrol in human keratinocytes. Cells were induced by 500 µM carvacrol with or without either 0.3 µM alpha-mangostin or 10 µM 74a for 24 h. The optical density (O.D.) values were normalized to those of the untreated cells. Data are shown as means ± SEM. **** p < 0.0001.
Strong activation of TRPV3 in keratinocytes by carvacrol at concentrations higher than 300 µM was reported to cause cell death. Therefore, we examined the effect of alpha-mangostin in keratinocytes exposed to 500 µM carvacrol.
The cell counting kit-8 (CCK8; Dojindo Laboratories, Kumamoto, Japan) was employed for viability assay. Keratinocytes (10^4 cells/well) plated in 96-well plates were incubated for about one day before exposing them to alpha-mangostin for 24 h. […] The optical density (O.D., 450 nm) of each well was measured after incubating the cells with CCK-8 solution ([…]) for 2 h. […]

[2] = target: T1, TRPV3 (Homo sapiens, UniProt Q8NET8); assay: Fura-2 calcium imaging, carvacrol-induced Ca2+ increase in NHEK; assay type: cell-based; parameters: host or cells: NHEK; details: 300 µM carvacrol, keratinocytes (NHEK), control 0.029 ± 0.003
T1 sequence (Q8NET8 1-790): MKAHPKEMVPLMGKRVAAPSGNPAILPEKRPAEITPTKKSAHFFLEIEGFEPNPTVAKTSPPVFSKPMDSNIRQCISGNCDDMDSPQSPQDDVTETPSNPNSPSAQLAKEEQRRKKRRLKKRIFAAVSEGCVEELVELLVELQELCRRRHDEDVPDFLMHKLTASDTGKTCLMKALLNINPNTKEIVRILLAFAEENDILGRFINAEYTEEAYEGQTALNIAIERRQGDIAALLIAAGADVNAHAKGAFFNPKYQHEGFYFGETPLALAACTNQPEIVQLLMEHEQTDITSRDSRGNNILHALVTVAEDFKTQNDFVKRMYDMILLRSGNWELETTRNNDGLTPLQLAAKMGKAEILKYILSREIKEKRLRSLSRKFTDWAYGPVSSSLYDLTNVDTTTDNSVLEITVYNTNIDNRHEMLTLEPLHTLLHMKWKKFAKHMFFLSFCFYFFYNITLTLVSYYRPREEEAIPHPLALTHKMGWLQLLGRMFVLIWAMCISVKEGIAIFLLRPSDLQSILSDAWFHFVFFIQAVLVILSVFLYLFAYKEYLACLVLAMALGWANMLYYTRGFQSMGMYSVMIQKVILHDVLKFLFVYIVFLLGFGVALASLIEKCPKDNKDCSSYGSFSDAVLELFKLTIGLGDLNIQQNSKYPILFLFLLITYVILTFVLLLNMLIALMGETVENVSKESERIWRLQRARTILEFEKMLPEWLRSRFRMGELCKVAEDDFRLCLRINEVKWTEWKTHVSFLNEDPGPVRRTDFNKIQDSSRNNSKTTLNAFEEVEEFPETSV
Procedure: Since the TRPV3-mediated calcium influx is reported to contribute to proper skin function, we investigated whether alpha-mangostin inhibits the intracellular calcium increase induced by carvacrol in hTRPV3-overexpressing HEK 293T cells and keratinocytes. […] In hTRPV3-overexpressing HEK 293T cells, ∆(F340/F380) decreased by approximately 25% and 70% upon exposure to 0.3 µM and 3 µM alpha-mangostin, respectively (Figure 3A, 0.424 ± 0.032 vs. 0.316 ± 0.030 and 0.144 ± 0.006, respectively).
Figure 3 Alpha-mangostin (α-MG) inhibited TRPV3-mediated intracellular calcium increase. Cells were perfused with solutions containing 0.3 µM, 3 µM alpha-mangostin or 10 µM 74a before the addition of 300 µM carvacrol (red, green, and blue lines, respectively). […]
Fura-2 AM (Thermo Fisher Scientific) was utilized as a fluorescent indicator to measure calcium signal, as described previously. […] To measure the cytosolic Ca^2+ level, a sequential excitation of Fura-2 is performed at 340 nm and 380 nm; then, the emission signals resulting from each excitation wavelength are measured and the ratio of these signals is calculated. […] Samples were excited using a wavelength of 380 nm for 20 ms, followed by 340 nm for 100 ms, and fluorescence at 510 nm was recorded. Recorded data were then analyzed using NIS-Element AR Version 5.00.00 (Nikon Instruments, Melville, NY, USA). […]

In the case of `COc1c(O)cc2oc3cc(O)c(CC=C(C)C)c(O)c3c(=O)c2c1CC=C(C)C` [Alpha-mangostin], the “Effect on carvacrol-induced decrease of cell viability” value [1] is reported as “significantly reversed”, the “Change in F340/F380” value ([2]; 0.3 µM) is reported as 0.019 ± 0.002 and the “Change in F340/F380” value ([2]; 3 µM) is reported as 0.010 ± 0.002.
